In PMC3749181, “Rapid Identification of Antifungal Compounds against Exserohilum rostratum Using High Throughput Drug Repurposing Screens” (PLoS ONE, 2013):
Where two headings read alike, the source gives them in different places.

How the values were obtained:
[1] = test system: E. rostratum hyphal fragments; assay: hyphal fragment fungicidal ATP content assay (PBS, 1536-well); assay type: cell-based, Exserohilum rostratum; conditions: for Hyphae % M. Res. / Emax / Hyphae % Max. Resp.: 46 µM Amphotericin B = 100%; for IC50: read-out: Hyphae IC50
Description: (§1) Conidia and hyphae of E. rostratum were obtained as described by Richard et al., with the following modifications. Briefly, conidia were harvested from Potato Dextrose Agar (PDA) cultured media with 0.05% Tween 80, and the conidial suspension was filtered using a Cell Strainer (100 µm, BD Falcon REF 352340). After centrifugation at 700g for 10 min, the suspension was decanted and conidia were resuspended at 1×10^5 per ml in RPMI and counted in a hemocytometer. Hyphae were harvested from yeast extract peptone dextrose (YPD) culture media with 0.05% Tween 80. Hyphal fragments were sized by vortexing 15 sec twice with 0.4 mm glassbeads, and the hyphae suspension was filtered by cheese cloth twice. […] To normalize concentrations of hyphal fragments for batch to batch consistency, carbohydrate analysis was performed by a phenol-sulfuric acid method as previously described. The final stock concentration of hyphae was adjusted to 1.0 (OD490) per 100 µl.
(§2) The ATPLite assay kit, consisting of luciferase/luciferin and detergent, was used to quantitate cellular ATP levels as a marker for cell viability (Table 1). For assay development, hyphal fragments or conidia in PBS were plated in a seeding density of 3,750, 7,500 and 15,000 cellular particles/well with a final volume of 5 µl/well using the Multidrop-Combi dispenser in white 1536-well plates. Conidia or hyphae fragments were incubated for 24 h at 37°C in a 5% CO2 humidified atmosphere. ATPLite detection reagents were added at 4 µl/well. The assay plates were incubated at room temperature for 15 minutes before reading luminescence intensity on a ViewLux plate reader (Perkin Elmer, Waltham, MA). Conidia suspended in RPMI medium were inoculated at concentrations of 62.5, 125 and 250 conidia/well with a final volume of 5 µl/well in white 1536-well plates. The conidia assay was developed and optimized in the same way as the hyphal assay.
(§3) The LOPAC library (Sigma-Aldrich) has been extensively used for HTS assay validations, [18]. The NIH Chemical Genomics Center Pharmaceutical (NPC) collection was constructed in-house through a combined effort of compound purchasing and custom synthesis and recently expanded to 4096 compounds. […] 2.5 µl/well PBS was dispensed into 1536-well plates using a Multidrop-Combi dispenser. Compound in DMSO solution was transferred in a volume of 23 nl/well using a NX-TR pintool station (WAKO Scientific Solutions, San Diego, CA). This additional PBS step for compound addition was designed to prevent the potential fungal contamination of compound libraries. The hyphal fragments in PBS were then added at 2.5 µl/well for a final seeding density of 15,000 hyphal fragments/well using the Multidrop-Combi dispenser. The final compound concentration was 46 µM in the primary screen. The assay plates were incubated for 24 h at 30°C before the detection of cellular viability with the ATP content assay. Screen of conidia was performed in a similar way except that PBS was replaced with RPMI medium and conidia were plated for a final seeding density of 250 conidia/well.
(§4) The primary screen data and curve fitting were analyzed using software developed internally at the NIH Chemical Genomics Center (NCGC). Total signals for cellular viability (100% cellular viability) were calculated from the wells with DMSO solvent and the complete cell killing (0% cellular viability) was calculated from 46 µM amphotericin B treated wells. […] All values were expressed as the mean +/− SD (n≥3).

SH-SY5Y cells = assay: SH-SY5Y cytotoxicity counter-screen (ATP content assay); assay type: cell-based, Human; conditions: for SH-SY5Y % M. Res.: Inact. = no significant activity at 46 µM; for SH-SY5Y % Max. Resp.: Table 2, SH-SY5Y, inact. = no significant activity at 46 µM
Description: Human neuroblastoma SH-SY5Y cell line (Catalog No. CRL-2266) was purchased from ATCC (Manassas, VA). SH-SY5Y cell line was cultured in 175-cm^2 tissue culture flasks (Costar, Cambridge, MA) with 30 ml of growth medium at 37°C in a 5% CO2 humidified atmosphere. Growth medium was made with Dulbecco's Modified Eagle Medium: Nutrient Mixture F-12 with 10% fetal bovine serum (FBS). Growth medium was replaced every other day and cells were passed at 75% confluence.
as §2
Two small known compound libraries including the LOPAC (1280 compounds) and approved drugs (4096 compounds) were screened in parallel using the above optimized assays for hyphae and conidia in 1536-well plates (Fig. 4). […] A mammalian SH-SY5Y cell line was used in parallel as a counter-screen with the same ATP content assay kit to assess the specificity of these compounds for E. rostratum.

E. rostratum conidia = assay: conidia growth inhibition ATP content assay (RPMI, 1536-well); assay type: cell-based, Exserohilum rostratum; conditions: for Conidia % M. Res. / Emax / Conidia % Max. Resp.: 46 µM Amphotericin B = 100%; for IC50: read-out: Conidia IC50
Description: as §1, §2, §3, §4

[2] = Table S1, Inact. = no significant activity in the primary screen
[3] = Table S1, 46 µM Amphotericin B = 100%
[4] = Table S1, Inact. = no significant activity at the highest compound concentration (46 µM)
[5] = Table S1, Inact. = no significant activity at 46 µM
[6] = Exserohilum rostratum, Table 2, inact. = no significant activity in the primary screen, read-out: Hyphae % Max. Resp.
[7] = Exserohilum rostratum, Table 2, 24 h, inact. = no significant activity in the primary screen
[8] = Exserohilum rostratum, 24 h, Table 2, 24 h, inact. = no significant activity at the highest compound concentration (46 µM)
[9] = Exserohilum rostratum, Table 2, inact. = no significant activity at 46 µM, read-out: Conidia % Max. Resp.
[10] = Exserohilum rostratum, Table S1, Inact. = no significant activity in the primary screen, read-out: Hyphae % M. Res.
[11] = Exserohilum rostratum, Table S1, Inact. = no significant activity in the primary screen
[12] = Table 2, inact. = no significant activity in the primary screen
[13] = Table 2, 24 h, inact. = no significant activity in the primary screen
[14] = Table 2, inact. = no significant activity at 46 µM
[15] = Table 2, 24 h, inact. = no significant activity at the highest compound concentration (46 µM)
[16] = Exserohilum rostratum, Table S1, Inact. = no significant activity at 46 µM, read-out: Conidia % M. Res.

Structure (SMILES): Sc1nc2ccccc2s1 [2-Mercaptobenzothiazole]
- Hyphae % M. Res. [1, 2]: Inact.
- Hyphae IC50 [1, 2]: Inact.
- SH-SY5Y % M. Res. (SH-SY5Y cells; [3]): Inact.
- SH-SY5Y IC50 (SH-SY5Y cells; [4]): Inact.
- Conidia % M. Res. (E. rostratum conidia; [5]): Inact.
- Conidia IC50 (E. rostratum conidia; [4]): Inact.

Structure (SMILES): CCC(C)(C)c1ccc(CC(C)CN2C[C@@H](C)O[C@@H](C)C2)cc1 (stereo partly drawn) [Amorolfine]
- Emax [1, 6]: 81%
- IC50 [1, 7]: 4510 nM
- SH-SY5Y % Max. Resp. (SH-SY5Y cells; 46 µM Amphotericin B = 100%): inact.
- SH-SY5Y % Max. Resp. (SH-SY5Y cells): inact.
- IC50 (E. rostratum conidia; [8]): 7860 nM
- Emax (E. rostratum conidia; [9]): 102%

Structure (SMILES): Clc1ccc(C2(Cn3cncn3)OCCO2)c(Cl)c1 [Azaconazole]
- Emax [1, 10]: 64%
- IC50 [1, 11]: 46900 nM
- SH-SY5Y IC50 (SH-SY5Y cells): Inact.
- SH-SY5Y % M. Res. (SH-SY5Y cells; [3]): Inact.
- Conidia IC50 (E. rostratum conidia): Inact.
- Conidia % M. Res. (E. rostratum conidia; [5]): Inact.

Structure (SMILES): [N-]=[N+]=CC(=O)OC[C@H](N)C(=O)O [Azaserine]
- Hyphae % M. Res. [1, 2]: Inact.
- Hyphae IC50 [1, 2]: Inact.
- SH-SY5Y % M. Res. (SH-SY5Y cells; [3]): Inact.
- SH-SY5Y IC50 (SH-SY5Y cells; [4]): Inact.
- Conidia % M. Res. (E. rostratum conidia; [5]): Inact.
- Conidia IC50 (E. rostratum conidia; [4]): Inact.

Structure (SMILES): CO/C=C(/C(=O)OC)c1ccccc1Oc1cc(Oc2ccccc2C#N)ncn1 [Azoxystrobin]
- Hyphae % Max. Resp. [1, 12]: 81%
- IC50 [1, 13]: 198 nM
- SH-SY5Y % Max. Resp. (SH-SY5Y cells; 46 µM Amphotericin B = 100%): inact.
- SH-SY5Y % Max. Resp. (SH-SY5Y cells): inact.
- Conidia % Max. Resp. (E. rostratum conidia; [14]): 83%
- IC50 (E. rostratum conidia; [15]): 304 nM

Structure (SMILES): c1ccc(-c2ccc(C(c3ccccc3)n3ccnc3)cc2)cc1 (stereo not drawn) [Bifonazole]
- Emax [1, 10]: 74%
- IC50 [1, 11]: 11800 nM
- IC50 (SH-SY5Y cells; Homo sapiens, SH-SY5Y, Table S1, Inact. = no significant activity at the highest compound concentration (46 µM)): 46900 nM
- SH-SY5Y % M. Res. (SH-SY5Y cells; [3]): 47%
- IC50 (E. rostratum conidia; Exserohilum rostratum, Table S1, Inact. = no significant activity at the highest compound concentration (46 µM)): 9350 nM
- Emax (E. rostratum conidia; [16]): 64%

Structure (SMILES): Oc1c(Cl)cc(Cl)cc1Sc1cc(Cl)cc(Cl)c1O [Bithionol]
- Hyphae % Max. Resp. [1, 12]: inact.
- Hyphae IC50 [1, 13]: inact.
- SH-SY5Y % Max. Resp. (SH-SY5Y cells; 46 µM Amphotericin B = 100%): inact.
- SH-SY5Y % Max. Resp. (SH-SY5Y cells): inact.
- IC50 (E. rostratum conidia; [8]): 1870 nM
- Emax (E. rostratum conidia; [9]): 100%

Structure (SMILES): Cc1ccc2c(Br)cc(Br)c(O)c2n1 [Broquinaldol]
- Hyphae % Max. Resp. [1, 12]: inact.
- Hyphae IC50 [1, 13]: inact.
- SH-SY5Y % Max. Resp. (SH-SY5Y cells; 46 µM Amphotericin B = 100%): inact.
- SH-SY5Y % Max. Resp. (SH-SY5Y cells): inact.
- IC50 (E. rostratum conidia; [8]): 7750 nM
- Emax (E. rostratum conidia; [9]): 101%

Structure (SMILES): Oc1c(Br)cc(Br)c2cccnc12 [Broxyquinoline]
- Emax [1, 6]: 96%
- IC50 [1, 7]: 4510 nM
- SH-SY5Y % Max. Resp. (SH-SY5Y cells; 46 µM Amphotericin B = 100%): 100%
- SH-SY5Y % Max. Resp. (SH-SY5Y cells): 58.9%
- IC50 (E. rostratum conidia; [8]): 1600 nM
- Emax (E. rostratum conidia; [9]): 98%

Structure (SMILES): CNc1ccc2oc(C[C@H]3O[C@@]4(CC[C@H]3C)O[C@H]([C@H](C)C(=O)c3ccc[nH]3)[C@H](C)C[C@H]4C)nc2c1C(=O)O [Calcimycin]
- Hyphae % Max. Resp. [1, 12]: inact.
- Hyphae IC50 [1, 13]: inact.
- SH-SY5Y % Max. Resp. (SH-SY5Y cells; 46 µM Amphotericin B = 100%): 94%
- SH-SY5Y % Max. Resp. (SH-SY5Y cells): 3.95%
- IC50 (E. rostratum conidia; Exserohilum rostratum, 24 h): 735 nM
- Emax (E. rostratum conidia; [9]): 51%

Structure (SMILES): O=C1C2CC=CCC2C(=O)N1SC(Cl)(Cl)Cl (stereo not drawn) [Captan]
- Emax [1, 6]: 82%
- IC50 [1, 7]: 1170 nM
- SH-SY5Y % Max. Resp. (SH-SY5Y cells; 46 µM Amphotericin B = 100%): 100%
- SH-SY5Y % Max. Resp. (SH-SY5Y cells): 18.6%
- Conidia % Max. Resp. (E. rostratum conidia; [14]): inact.
- Conidia IC50 (E. rostratum conidia; [15]): inact.

Structure (SMILES): COCc1c(C(C)C)nc(C(C)C)c(/C=C/[C@@H](O)C[C@@H](O)CC(=O)O)c1-c1ccc(F)cc1 [Cerivastatin sodium]
- Emax [1, 6]: 79%
- IC50 [1, 7]: 1610 nM
- SH-SY5Y % Max. Resp. (SH-SY5Y cells; 46 µM Amphotericin B = 100%): inact.
- SH-SY5Y % Max. Resp. (SH-SY5Y cells): inact.
- IC50 (E. rostratum conidia; [8]): 472 nM
- Emax (E. rostratum conidia; [9]): 101%

Structure (SMILES): Oc1c(I)cc(Cl)c2cccnc12 [Clioquinol]
- Hyphae % Max. Resp. [1, 12]: inact.
- Hyphae IC50 [1, 13]: inact.
- SH-SY5Y % Max. Resp. (SH-SY5Y cells; 46 µM Amphotericin B = 100%): 60%
- SH-SY5Y % Max. Resp. (SH-SY5Y cells): 37.2%
- IC50 (E. rostratum conidia; [8]): 975 nM
- Emax (E. rostratum conidia; [9]): 103%

Structure (SMILES): CCCCCCCCCC(=O)NO [Decanohydroxamic acid]
- Hyphae % M. Res. [1, 2]: Inact.
- Hyphae IC50 [1, 2]: Inact.
- SH-SY5Y % M. Res. (SH-SY5Y cells; [3]): Inact.
- SH-SY5Y IC50 (SH-SY5Y cells; [4]): Inact.
- Conidia % M. Res. (E. rostratum conidia; [5]): Inact.
- Conidia IC50 (E. rostratum conidia; [4]): Inact.

Structure (SMILES): Cc1cc(N)c2ccccc2[n+]1CCCCCCCCCC[n+]1c(C)cc(N)c2ccccc21 [Dequalinium dichloride]
- Emax [1, 6]: 93%
- IC50 [1, 7]: 673 nM
- SH-SY5Y % Max. Resp. (SH-SY5Y cells; 46 µM Amphotericin B = 100%): inact.
- SH-SY5Y % Max. Resp. (SH-SY5Y cells): inact.
- IC50 (E. rostratum conidia; [8]): 2540 nM
- Emax (E. rostratum conidia; [9]): 109%

Structure (SMILES): N[C@@H](COP(=O)(O)O)C(=O)O [Dexfosfoserine]
- Hyphae % M. Res. [1, 2]: Inact.
- Hyphae IC50 [1, 2]: Inact.
- SH-SY5Y % M. Res. (SH-SY5Y cells; [3]): Inact.
- SH-SY5Y IC50 (SH-SY5Y cells; [4]): Inact.
- Conidia % M. Res. (E. rostratum conidia; [5]): Inact.
- Conidia IC50 (E. rostratum conidia; [4]): Inact.

Structure (SMILES): Clc1ccc(COC(Cn2ccnc2)c2ccc(Cl)cc2Cl)cc1 (stereo not drawn) [Econazole nitrate]
- Emax [1, 10]: 77%
- SH-SY5Y % M. Res. (SH-SY5Y cells; [3]): Inact.
- Emax (E. rostratum conidia; [16]): 64%
